From patent US20070161560A1, “Use of vanilloid 4 receptor and antagonists or agonists thereof for treating diseases associated with pain” (SmithKline Beecham plc, priority 2000, published 2007)

What was measured:
Assay type in all cases: cell-based
[1] = test system: VR4 endogenously expressed by chondrocytes; test: FLIPR cytoplasmic calcium (Fluo-3), bovine articular chondrocytes; conditions: channel blocker against the 4α-PDD response
Description: (§1) The VR4 cDNA was inserted into the expression vector pcDNA3.1 V5-His (Invitrogen). Wildtype HEK293 cells, or HEK293 cells transfected with the human VR4:pcDNA3.1 V5-His construct, or mock transfected cells, or bovine chondrocytes, were seeded into 96-well microtitre plates at 25,000 cells/well and cultured overnight. The cells were then incubated with 4 microM Fluo-3 for 2 hrs at room temperature in the dark. Dye loaded cells were washed 4× with Tyrodes buffer: (NaCl, 145 mM; KCl, 2.5 mM; Hepes, 10 mM; Glucose, 10 mM; MgC12, 1.2 mM; CaCl2, 1.5 mM), which also contained 0.2% BSA but not probenecid. Agonists and antagonists were also prepared in Tyrodes buffer. Cells were preincubated for 30 mins with antagonist or buffer. Agonist addition and measurement of cytoplasmic calcium concentration was performed in the FLIPR (Smart et al., (2000) Br. J. Pharmacol. 129, 227-230).
The response was dependent upon extracellular calcium ions and was blocked by the channel blocker ruthenium red.

wild type HEK293 cells = test: FLIPR cytoplasmic calcium (Fluo-3), wild type HEK293 cells; conditions: result in words
Description: as §1

[2] = test system: HEK293 cells transfected with empty vector; test: FLIPR cytoplasmic calcium (Fluo-3), HEK293 cells transfected with empty vector; conditions: result in words
Description: as §1

human VR1 = human VR1 (Homo sapiens, UniProt Q8NER1); conditions: for activity at VR1: result in words; for pEC50 hVR1: increase of intracellular calcium, human VR1, mean ± s.e. mean, n = 3-5, IA = inactive
human VR4 = target: T1, human VR4 (Homo sapiens, UniProt Q9HBA0); test: FLIPR cytoplasmic calcium (Fluo-3), HEK293 cells transfected with human VR4; conditions: for effect on intracellular calcium in HEK293-VR4 cells: result in words; for pEC50 hVR4: increase of intracellular calcium, mean ± s.e. mean, n = 3-5, IA = inactive; for effect on intracellular calcium in HEK293-VR4 cells / pEC50 hVR4: HEK293-VR4 cells
T1 construct: V5-His (vector-encoded); expressed in transfected cells; host or cells: HEK293
Description: as §1

T1 sequence (Q9HBA0 whole entry): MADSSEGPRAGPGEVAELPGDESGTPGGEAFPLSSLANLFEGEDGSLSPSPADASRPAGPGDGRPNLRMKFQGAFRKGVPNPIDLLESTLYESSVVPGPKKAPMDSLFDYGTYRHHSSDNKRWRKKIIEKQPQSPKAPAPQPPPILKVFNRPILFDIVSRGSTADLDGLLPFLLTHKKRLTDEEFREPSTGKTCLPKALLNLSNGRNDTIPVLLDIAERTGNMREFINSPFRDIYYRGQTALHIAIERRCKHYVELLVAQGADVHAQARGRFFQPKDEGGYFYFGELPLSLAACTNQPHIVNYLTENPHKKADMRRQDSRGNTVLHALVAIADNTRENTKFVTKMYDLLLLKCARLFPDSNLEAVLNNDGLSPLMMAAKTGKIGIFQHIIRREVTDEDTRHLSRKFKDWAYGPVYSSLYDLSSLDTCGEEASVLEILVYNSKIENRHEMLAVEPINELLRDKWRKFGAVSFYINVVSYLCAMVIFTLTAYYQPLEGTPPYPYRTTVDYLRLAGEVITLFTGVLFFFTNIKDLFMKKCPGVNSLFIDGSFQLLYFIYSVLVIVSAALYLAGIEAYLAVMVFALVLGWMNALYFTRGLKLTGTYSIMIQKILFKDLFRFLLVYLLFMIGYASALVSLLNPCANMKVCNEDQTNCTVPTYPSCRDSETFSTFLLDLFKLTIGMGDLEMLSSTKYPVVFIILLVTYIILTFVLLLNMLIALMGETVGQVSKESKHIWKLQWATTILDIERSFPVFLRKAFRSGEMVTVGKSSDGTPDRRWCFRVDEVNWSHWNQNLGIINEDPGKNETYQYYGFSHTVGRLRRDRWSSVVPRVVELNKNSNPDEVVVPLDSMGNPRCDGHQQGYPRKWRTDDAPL
human VR1, sequence (Q8NER1 whole entry): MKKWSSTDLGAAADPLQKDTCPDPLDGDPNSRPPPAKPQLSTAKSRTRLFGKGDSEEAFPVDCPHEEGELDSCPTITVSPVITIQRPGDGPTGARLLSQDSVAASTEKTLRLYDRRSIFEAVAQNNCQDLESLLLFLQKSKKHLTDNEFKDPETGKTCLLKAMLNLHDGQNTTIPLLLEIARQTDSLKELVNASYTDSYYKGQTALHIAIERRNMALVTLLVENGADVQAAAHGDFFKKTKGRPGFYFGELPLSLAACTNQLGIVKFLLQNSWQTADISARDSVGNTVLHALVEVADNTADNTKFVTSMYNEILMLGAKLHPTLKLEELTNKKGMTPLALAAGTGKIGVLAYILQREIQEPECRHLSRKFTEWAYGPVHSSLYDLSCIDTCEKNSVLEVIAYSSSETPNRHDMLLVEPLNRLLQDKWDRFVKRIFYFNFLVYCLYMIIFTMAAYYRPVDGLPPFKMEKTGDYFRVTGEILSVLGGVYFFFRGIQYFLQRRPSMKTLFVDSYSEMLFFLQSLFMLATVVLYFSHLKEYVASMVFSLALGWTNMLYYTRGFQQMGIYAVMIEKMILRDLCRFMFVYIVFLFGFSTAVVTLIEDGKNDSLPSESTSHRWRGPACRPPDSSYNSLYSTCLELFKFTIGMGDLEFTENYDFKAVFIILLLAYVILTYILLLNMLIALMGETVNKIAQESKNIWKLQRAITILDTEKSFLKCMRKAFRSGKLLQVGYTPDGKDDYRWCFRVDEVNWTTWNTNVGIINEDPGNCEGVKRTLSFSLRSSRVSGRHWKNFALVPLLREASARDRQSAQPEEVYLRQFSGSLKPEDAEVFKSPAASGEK

| Structure (SMILES) | block of the response to 4α-PDD in bovine articular chondrocytes [1] | effect on intracellular calcium in wild type HEK293 cells (wild type HEK293 cells) | effect on intracellular calcium in cells transfected with empty vector [2] | activity at VR1 (human VR1) | effect on intracellular calcium in HEK293-VR4 cells (human VR4) | selectivity VR4 over VR1 (human VR4; conclusion from pEC50 at hVR4 and hVR1) | pEC50 hVR4 (human VR4) | pEC50 hVR1 (human VR1) | Emax at VR1 (human VR1; compared to capsaicin and RTX) |
| --- | --- | --- | --- | --- | --- | --- | --- | --- | --- |
| N.N.N.N.N.N.N.N.N.N.N.N.N.N.[Cl-].[Cl-].[Cl-].[Cl-].[Cl-].[Cl-].[O-2].[O-2].[Ru+3].[Ru+3].[Ru+4] [ruthenium red] | blocked |  |  |  |  |  |  |  |  |
| CCCCCCCCCC(=O)O[C@@H]1[C@@H](C)[C@@]2(O)[C@@H](C=C(CO)C[C@@]3(O)C(=O)C(C)=C[C@@H]23)[C@@H]2C(C)(C)[C@]12OC(=O)CCCCCCCCC [4αPDD, 4α-phorbol-12,13-didecanoate] |  | without effect | without effect | inactive | increased intracellular calcium | VR4 selective agonist | 5.73 ± 0.06 |  |  |
| C=C(C)[C@]12C[C@@H](C)[C@@]34O[C@](Cc5ccccc5)(O[C@@H]1[C@@H]3C=C(COC(=O)Cc1ccc(O)c(OC)c1)C[C@]1(O)C(=O)C(C)=C[C@@H]41)O2 [RTX] |  |  |  |  |  |  |  | 8.93 ± 0.20 |  |
| CCCCCCCCCCCCCC(=O)O[C@@H]1[C@@H](C)[C@@]2(O)[C@@H](C=C(CO)C[C@]3(O)C(=O)C(C)=C[C@@H]23)[C@@H]2C(C)(C)[C@]12OC(C)=O [PMA, phorbol 12-myristate 13-acetate] |  | without effect | without effect | partial agonist | increased intracellular calcium |  | 6.64 ± 0.06 | 7.86 ± 0.06 | 0.46 |
